Results: ChEMBL document CHEMBL1201862, “PubChem BioAssay data set” (2004)
Calls of active or inactive are those of the source.

How the values were obtained:
[1] = blockers of FN fibrillogenesis by fibroblasts – AH1F cells, Alexa488-FN fluorescence, cherry-picks, dose response (AID 1035475); format: functional, cell-based
[2] = HeLa cell viability loss – plate reader, dry powder, cytotoxicity control, dose response (AID 651946); format: functional, cell-based
[3] = inhibitors of non-replicating M. tuberculosis, dose response, luciferase, dry powder (AID 651620); format: functional; settings: Mycobacterium tuberculosis
[4] = inhibitors of non-replicating M. tuberculosis, dose response, luciferase, dry powder (AID 651619); format: functional; settings: Mycobacterium tuberculosis
[5] = growth inhibition of replicating M. tuberculosis, dose response, counter-screen, dry powder, IC90 (AID 651617); format: functional; settings: Mycobacterium tuberculosis
[6] = viability loss in HEK293T cells – cell-based, CellTiter-Glo luminescence, dry powder, set 6, cytotoxicity control, dose response (AID 651949); format: functional; settings: HEK293
[7] = viability loss in HEK293 kidney cells – cell-based, cherry-picks, set 5, cytotoxicity control, dose response (AID 1053117); format: functional
[8] = viability loss in HepG2 hepatoma cells – cell-based, cherry-picks, set 5, cytotoxicity control, dose response (AID 1053118); format: functional
[9] = P. falciparum Dd2 growth inhibitors, dose response, SYBR Green, cherry-picked samples (AID 1159567); format: functional, cell-based
[10] = toxicity to human HepG2 hepatoma cells – cell-based, plate reader, dry powder samples, cytotoxicity control, dose response (AID 1159569); format: functional;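 further: inhibitor potency with signal falling toward the positive control level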
[11] = growth inhibition of PfATP4-mutant resistant parasites – NITD609-resistant line, SYBR Green, dry powder, dose response (AID 1159571); format: functional, cell-based;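 further: parasites synchronized at ring stage by sorbitol before testing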
[12] = CTGF mRNA reduction in DLD1 cells – cell-based, DLD1 colon cancer, RT-qPCR, cherry-pick, dose response (AID 1053122); format: functional; settings: Cancer cell lines
[13] = toxicity to human hepatoma HepG2 cells – cell-based, cherry-picked samples, cytotoxicity control, dose response (AID 1159577); format: functional
[14] = growth inhibition of yeast DHODH-expressing 3D7 parasites – SYBR Green, dry powder samples, dose response (AID 1159570); format: functional, cell-based;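 further: parasite growth measured after 72 hours of compound exposure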
[15] = Dd2 malaria parasite growth inhibition potency – SYBR Green, dry powder samples, dose response (AID 1159566); format: functional, cell-based;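 further: potency for growth inhibition with lower SYBR green DNA signal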
Beta Lactamase = Beta Lactamase (Pseudomonas aeruginosa, UniProt Q932Y6); assay: BLA reporter interference, concentration series – BLA reporter cells, FRET fluorescence, artefact control for TLR9-MyD88 binding inhibitor project, dose response (AID 588341); format: cell-based;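 further: cell based assay in CHO-K1 cells stably expressing beta-lactamase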
Sequence of Beta Lactamase (Q932Y6 whole entry): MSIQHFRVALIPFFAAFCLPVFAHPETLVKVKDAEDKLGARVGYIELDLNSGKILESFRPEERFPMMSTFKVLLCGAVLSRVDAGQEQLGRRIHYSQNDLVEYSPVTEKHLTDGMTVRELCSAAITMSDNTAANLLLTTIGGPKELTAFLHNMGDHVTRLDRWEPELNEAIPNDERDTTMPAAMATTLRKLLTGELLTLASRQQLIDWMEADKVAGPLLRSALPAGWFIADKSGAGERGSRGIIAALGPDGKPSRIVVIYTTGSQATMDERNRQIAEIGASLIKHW

[16] = Late stage assay provider counterscreen for TLR9 inhibitors: absorbance-based cell-based MTT cytotoxicity assay.; format: functional
CHO = CHO cell viability loss, potency – luminescence, cytotoxicity control for TLR9-MyD88 binding inhibitor project, dose response (AID 588339); format: functional, cell-based, hamster; settings: Cricetulus griseus;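 further: CHO cells stably coexpressing TLR9 and MyD88 fusions from primary screen; compound exposure lasted 48 hours before viability readout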
[17] = target: Photoreceptor-specific nuclear receptor (Homo sapiens, UniProt Q9Y5X4); format: functional, cell-based;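 further: CHO-S cells with Gal4-NCOR and VP16-NR2E3 two-hybrid luciferase reporter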
Sequence of Photoreceptor-specific nuclear receptor (Q9Y5X4 whole entry, the tested form may be a part): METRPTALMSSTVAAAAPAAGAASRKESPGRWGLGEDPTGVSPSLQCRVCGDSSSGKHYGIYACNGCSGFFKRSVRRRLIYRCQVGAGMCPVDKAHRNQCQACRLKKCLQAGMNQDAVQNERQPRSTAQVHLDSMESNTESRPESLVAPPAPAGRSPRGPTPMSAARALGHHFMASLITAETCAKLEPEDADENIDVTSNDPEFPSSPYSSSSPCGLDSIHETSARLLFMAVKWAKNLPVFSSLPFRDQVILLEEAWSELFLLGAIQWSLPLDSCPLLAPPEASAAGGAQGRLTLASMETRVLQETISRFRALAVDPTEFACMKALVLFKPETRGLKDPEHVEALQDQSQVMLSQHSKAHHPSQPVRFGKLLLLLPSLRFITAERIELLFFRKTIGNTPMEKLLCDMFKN

[18] = growth inhibition of MALME3 cells – cell-based, CellTiter-Glo luminescence, dry powder, set 5, orthogonal assay for MITF inhibitor project, dose response (AID 651584); format: functional; settings: MALME-3
[19] = MITF Orthogonal Assay: MALME3 CTG Assay Measured in Cell-Based System Using Plate Reader - 2084-04_Inhibitor_Dose_DryPowder_Activity_Set6.; format: functional; settings: MALME-3
[20] = inhibitors of TRPM1-promoter reporter in SK-MEL-5 – cell-based, luciferase, dry powder, set 8, MITF inhibitor project, dose response (AID 624430); format: functional
[21] = melanocyte viability loss, MITF-dependent cells, cell-based, plate reader, dry powder, cytotoxicity control, dose response (AID 651920); format: functional
[22] = growth inhibition of SK-MEL-5 melanoma cells – cell-based, CellTiter-Glo luminescence, dry powder, set 8, orthogonal assay for MITF inhibitor project, dose response (AID 651586); format: functional
[23] = cytotoxicity in MITF-independent A375 cells – cell-based, CellTiter-Glo luminescence, dry powder, set 9, counter-screen for MITF modulator project, dose response (AID 651591); format: functional; settings: A-375
[24] = MITF Orthogonal Assay: SK-MEL-5 CTG Assay Measured in Cell-Based System Using Plate Reader - 2084-02_Inhibitor_Dose_DryPowder_Activity_Set7.; format: functional
[25] = MITF: Counter assay: A375 proliferation Measured in Cell-Based System Using Plate Reader - 2084-03_Inhibitor_Dose_DryPowder_Activity_Set8.; format: functional; settings: A-375
[26] = cervical cancer cell viability loss – HeLa, 24 h, plate reader, powder samples, set 3, cytotoxicity control, dose response (AID 651864); format: functional, cell-based
[27] = HeLa cell viability loss – 24 h, dry powder, set 2, cytotoxicity control, dose response (AID 651774); format: functional, cell-based
[28] = target: Potassium channel subfamily K member 9 (Homo sapiens, UniProt Q9NPC2); assay: KCNK9 flux blockade, concentration-response – cell-based, FluxOR thallium flux, selectivity assay for TASK1 inhibitor project, SAR follow-up (AID 652211); format: functional;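 further: potency is for inhibitors of the channel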
Sequence of Potassium channel subfamily K member 9 (Q9NPC2 whole entry): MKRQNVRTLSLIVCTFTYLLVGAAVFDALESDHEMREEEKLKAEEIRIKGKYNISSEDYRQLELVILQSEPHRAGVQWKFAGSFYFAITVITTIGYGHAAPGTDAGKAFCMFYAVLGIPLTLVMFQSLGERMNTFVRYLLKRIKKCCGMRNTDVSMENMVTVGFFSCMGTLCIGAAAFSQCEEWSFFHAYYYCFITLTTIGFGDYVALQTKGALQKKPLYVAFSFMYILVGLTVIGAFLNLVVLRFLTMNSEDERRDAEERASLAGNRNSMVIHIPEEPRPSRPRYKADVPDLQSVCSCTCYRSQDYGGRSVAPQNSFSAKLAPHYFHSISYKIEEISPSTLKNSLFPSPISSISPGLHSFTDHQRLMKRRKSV

SMILES: CC(=O)Nc1cccc(-c2ccnc3c2CC(C)(C(=O)Nc2cccc(C(F)(F)F)c2)O3)c1 (stereo not given)
- AC50 [1]: 22.7 µM (active)

SMILES: COc1cccc(-c2nnc(SCc3ccccn3)o2)c1
- AC50 [2]: > 52 µM (inactive)
- IC90 [3]: 4 µM (active)
- IC90 [4]: 4 µM (active)
- IC90 [5]: 125 µM (active)
- AC50 [6]: > 52 µM (inactive)

SMILES: COc1cccc(-c2ccc3c(c2)[C@H]2[C@H](CCN2S(=O)(=O)c2cccc(OC)c2)[C@@H](CO)N3)c1
- AC50 [7]: 29.7 µM (active)
- AC50 [8]: > 52 µM (inactive)

SMILES: C[C@@H]1CN([C@H](C)CO)C(=O)c2c(c3ccccc3n2C)-c2ccccc2CO[C@@H]1CN(C)Cc1cccc(C(F)(F)F)c1
- AC50 [9]: 1.87 µM (active)
- AC50 [10]: 19.6 µM (active)
- AC50 [11]: 2.09 µM (active)
- AC50 [12]: 14.3 µM (active)
- AC50 [13]: 27.2 µM (active)
- AC50 [14]: 3.38 µM (active)
- AC50 [15]: 1.28 µM (active)

SMILES: O=S(=O)(/C=C/C=C/S(=O)(=O)c1ccccc1)c1ccccc1
- IC50 (Beta Lactamase): > 49.8 µM (inactive)
- CC50 [16]: 0.59 µM (active)
- IC50 (CHO): 0.959 µM (active)
- IC50 [17]: 1.61 µM (active)

SMILES: Cc1ccc(NC2=CC(=O)c3ccccc3C2=O)cc1
- AC50 [18]: 13.5 µM (active)
- AC50 [19]: 13.5 µM (active)
- AC50 [20]: 6.58 µM (active)
- AC50 [21]: > 70 µM (inactive)
- AC50 [22]: 36.1 µM (active)
- AC50 [23]: > 70 µM (inactive)
- AC50 [24]: 1.24 µM (active)
- AC50 [25]: > 70 µM (inactive)

SMILES: CCC(CC)NC(=O)Cc1ccc(-c2ccccc2)cc1
- AC50 [26]: > 160 µM (inactive)
- AC50 [27]: > 70 µM (inactive)

SMILES: Cc1cccc(C(=O)Nc2cccc(NC(=O)c3ccco3)c2)c1
- IC50 [28]: 1.67 µM (active)
